The text below walks through data of the METLIN SMRT retention time set (Domingo-Almenara et al. 2019).

This data set in a line: gradient 5% acetonitrile 3 min, to 50% in 2 min, to 85% in 15 min, held 3 min, 100 µL/min. The settings on record: column: Zorbax Extend-C18 2.1 x 50 mm; eluents: water / acetonitrile, 0.1% formic acid. The method in brief: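 Mixtures of ~100 pure standards were chromatographed on a Zorbax Extend-C18 column (2.1 × 50 mm, 1.8 μm) at 100 μL/min using water and acetonitrile, each with 0.1% formic acid. Detection used a quadrupole time-of-flight mass spectrometer in positive and negative ionization mode, and data collection spanned 3 months. Retention time was obtained from adduct peaks picked computationally and each checked manually.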
In turn, `O=C(NCCCNc1nc(Nc2cccc(NC(=O)N3CCCC3)c2)ncc1I)c1cccs1` displayed an RP-LC retention time of 691 s. Regarding `O=C(CN1CCCCC1c1nc(-c2cccc(F)c2)no1)Nc1cccc(F)c1` (centres undefined), the RP-LC retention time is 967 s. In turn, `O=C(N[C@H]1C[C@@H]2C[C@H]1N(C(=O)c1ccc(Cl)s1)C2)c1cccs1` returned an RP-LC retention time of 850 s. The figure for `O=S(=O)(c1c[nH]c2ncccc12)N1CCc2ccccc21` is 763 s; for `O=C(Nc1nccs1)C1CCN(C(=O)c2ccc([N+](=O)[O-])o2)CC1` it is 658 s.

`Cc1ccc(-c2noc(CN3C(=O)COc4cc(Cl)ccc43)n2)cc1C` displayed an RP-LC retention time of 1200 s. The figure for `CCNC(=O)c1nc(Nc2ccc(C)cc2)c2ccccc2n1` is 705 s; for `Cc1ccc(-c2nnc(CC(=O)NCCC(C)C)o2)cc1` it is 829 s. With `Cc1cccc(N2CCN([C@H]3CS(=O)(=O)C[C@@H]3S(=O)(=O)c3ccccc3)CC2)c1C` the figure was 1060 s; with `CCN1CCN(C(=O)C2CCN(CCc3cn(CC)c4ncccc34)CC2)CC1`, 525 s. Take `CCN1C(=O)Cc2ccccc2C1C(=O)N(C)Cc1ccco1` (centres undefined): the RP-LC retention time was found to be 732 s.

`Cn1nnc2c(Nc3ccc(Br)cc3F)ncnc21` had an RP-LC retention time of 761 s. For the compound `O=C(c1c(F)cccc1Cl)N1CCCC(c2nnc(-c3ccccc3F)s2)C1` (centres undefined), the RP-LC retention time amounted to 920 s. The figure for `O=C(NC1CC1)[C@@H]1C[C@H](Oc2ccccc2)CN1C(=O)C1CC1` is 684 s. With `CC1=C(C(=O)N2CCOCC2)C(c2cccc(Br)c2)C2=C(CCCC2=O)N1` (centres undefined) the figure was 664 s; with `COc1ccc(-c2cc(N3CCN(C(=O)Nc4ccc(OC)cc4OC)CC3)ncn2)cc1`, 663 s. The figure for `Cc1ccc(C)c(S(=O)(=O)N2CCC3(CC2)NCCN=C3NCc2ccc(F)cc2)c1` is 772 s. In turn, `COc1ccc(N2CC(c3nc(-c4ccccn4)no3)CC2=O)cc1Cl` (centres undefined) showed an RP-LC retention time of 724 s.

Compound `O=C(c1cccs1)N1CCc2ccc([N+](=O)[O-])cc2C1` showed an RP-LC retention time of 792 s. With `COC(=O)C1=CN(c2cc(Cl)c(OC)cc2OC)c2ccc(F)cc2S1(=O)=O` the figure was 914 s; with `Cn1nc(-c2nc(Cc3ccccc3)no2)c2c1CCN(C(=O)C(C)(C)C)C2`, 937 s; with `Cc1ccccc1NC(=O)Cn1c(C)nc2onc(C)c2c1=O`, 738 s. In the case of `COc1ccc(-n2ncc3c(=O)n(Cc4nc(-c5ccc(Cl)c(F)c5)no4)cnc32)cc1`, the RP-LC retention time is 1090 s. Consider `CC(C)C(=O)Nc1ccc(-n2cnc(C(=O)N3CCSCC3)c2)nc1`, for which the RP-LC retention time was found to be 679 s.

Compound `CCOc1ccccc1NS(=O)(=O)c1cc(-c2c(C)noc2NC(C)=O)ccc1OC` had an RP-LC retention time of 798 s. With `COC(=O)c1cc(C)nc2c1c(=O)n(Cc1nc(-c3ccc(OC)c(OC)c3)oc1C)c(=O)n2C` the figure was 964 s. The figure for `CC(C)CC(=O)N1CCc2c(c(C(=O)N3CCCC(C(=O)Nc4ccccc4)C3)nn2C)C1` (centres undefined) is 747 s; for `CCC(CC)C(=O)Nc1nc(-c2ccccc2)c(-c2ccccc2)o1` it is 1040 s; for `Cc1ccc2c(c1)N(C(=O)CCC(=O)NCCCN1CCC(N3CCCCC3)CC1)CC(C)O2` (centres undefined) it is 576 s. With `O=C(C1CC1)N1CCc2sc(S(=O)(=O)NCc3ccc(Cl)cc3)cc2C1` the figure was 856 s; with `CCC(C)NC(=O)C1CC(=O)N(c2ccc3c(c2)CCN3C(C)=O)C1` (centres undefined), 630 s; with `CC1CCN(c2nc(C(=O)NCc3ccccn3)nc3c2cnn3C)CC1`, 660 s. With `COC(=O)c1cc(S(=O)(=O)N2CCCC2C(=O)N2CCc3ccccc32)cn1C` (centres undefined), the RP-LC retention time amounted to 848 s. `CCOc1cc(C)c(C(C)C)cc1S(=O)(=O)NCc1ccccn1`: the RP-LC retention time was 766 s.

`CCN1C(=O)COc2ccc(-c3nc(NC(=O)C(C)C)sc3C)cc21` displayed an RP-LC retention time of 909 s. With `O=C(NC1CCCCC1)C1CCCN(c2nc3ccsc3c(=O)n2Cc2ccccc2)C1` (centres undefined) the figure was 957 s; with `Fc1cccc(-c2nnc(C(c3cccc(Cl)c3)N3CCN(c4ccccn4)CC3)o2)c1` (centres undefined), 774 s.

`O=C(c1ccc(OCC2CCCN2C(=O)C2CCCC2)cc1)N1CCOCC1` (centres undefined) returned an RP-LC retention time of 750 s.

In turn, `COc1ccc(Nc2nc(N3CCN(C)CC3)nc3c2C(=O)CC(C)(C)C3)cc1` yielded an RP-LC retention time of 706 s. With `CCCn1c(=O)c(N2CCN(C(=O)CC3CCCC3)CC2)nc2ccccc21` the figure was 1130 s; with `COc1ccc(-c2ncc3c(n2)CCN(C(=O)Cc2ccccc2Cl)C3)cc1`, 989 s; with `CN(C)c1cccc(C(=O)N2CCN(C(=O)C3CC3c3ccc4c(c3)OCO4)CC2)c1` (centres undefined), 715 s.

Turning to `O=C(NCc1ccc(F)cc1Cl)C1CCN(C(=O)c2cc3ccsc3[nH]2)CC1`, the RP-LC retention time is 822 s. In the case of `CCOc1ccc(-c2cn3ccn(-c4cccc(Cl)c4)c(=O)c3n2)cc1`, the RP-LC retention time was 899 s. With `Cc1ccc(C2=NC3(CCN(C(=O)Cc4ccccc4C)CC3)ON2)cc1` the figure was 933 s; with `Cc1ccc(NC(=O)C2CCc3sc(C(=O)N4CCOCC4)cc3C2)cc1` (centres undefined), 842 s; with `O=C(C1CCN(c2nc3cccnc3s2)CC1)N1CCN(c2ccccn2)CC1`, 590 s. The figure for `O=C(NCC1CCCO1)C1CCCN(c2ncnc3c2oc2ccccc23)C1` (centres undefined) is 656 s; for `COc1cc(C(=O)Nc2nc(-c3ccc(C)cc3)c(C)s2)c(Br)c(OC)c1OC` it is 1190 s; for `CCOC(=O)c1cnc2nc(C)ccc2c1Nc1ccc(F)c(C#N)c1` it is 684 s.

For `COc1ccccc1-c1noc(C2CCCN2C(=O)c2ccc(C#N)cc2F)n1` (centres undefined), the RP-LC retention time is 839 s. As to `CC(=O)N(C)c1ccc(NC(=O)c2c(-c3ccccc3Cl)noc2C)cc1`, the RP-LC retention time was determined as 774 s. The figure for `CCc1ccc(OCc2nc(CCN(C)C(=O)Nc3ccc(OC)c(OC)c3)no2)cc1` is 856 s; for `CCCNC(=O)C1CCCN(c2nc3ncn(CC(=O)NCc4ccc(F)cc4)c(=O)c3s2)C1` (centres undefined) it is 695 s; for `Cc1cc(C(=O)Nc2ccc(C)c(C)c2)n(-c2ccccc2)n1` it is 961 s. With `O=C(Cc1ccccc1Br)NCC(=O)N1CCCc2ccccc21` the figure was 862 s; with `CC1CCN(C(=O)C2CCN(c3nc4cccnc4s3)CC2)CC1`, 784 s. For `Cc1noc2nc(CCC(=O)NCc3ccc(Cl)cc3)nc(N3CCCC3)c12`, the RP-LC retention time was found to be 819 s.

The compound `CCC(C)NC(=O)Cn1ccn2nc(-c3ccc(F)cc3)c(CO)c2c1=O` (centres undefined) showed an RP-LC retention time of 725 s. The figure for `CCC(Oc1ccc(=O)n(-c2ccc(F)cc2)n1)C(=O)NCCc1ccco1` (centres undefined) is 759 s; for `Cc1cccc(C)c1NC(=O)CN1CCCC1` it is 633 s; for `Cc1cc(C(=O)N2CCCCC2c2nncn2CC2CC2)nn1C` (centres undefined) it is 629 s. In turn, `C=C1C[C@H]2[C@@H]3CCC4=CC(=O)CC[C@@H]4[C@H]3CC[C@]2(C)[C@@]1(OC(C)=O)C(C)=O` returned an RP-LC retention time of 1160 s. As for `CCOC(=O)c1noc2ncnc(Nc3ccccc3CC)c12`, the RP-LC retention time stood at 948 s.

For `CC1CCN(S(=O)(=O)c2ccc(-c3nnc(C(=O)NCCCN4CCN(C)CC4)o3)cc2)CC1`, the RP-LC retention time turned out to be 623 s. The figure for `COc1ccc(C)cc1NC(=O)Cn1nc2cc(-c3ccccc3)nc(C)n2c1=O` is 752 s. With `CCOc1ccc(-c2ccc(=O)n(Cc3nc(-c4cccc(C)c4)no3)n2)cc1` the figure was 1120 s; with `CCC(=O)Nc1ccc(-n2cnc(C(=O)N3CC(C)CC(C)C3)c2)nc1` (centres undefined), 772 s. The figure for `O=C(c1ccncn1)N1CC(n2cnnc2C2CCCO2)C1` (centres undefined) is 580 s; for `CS(=O)(=O)N(Cc1ccncc1)C1CN(C(=O)c2ccoc2)C1` it is 552 s. On to `C[C@@]1(C(=O)Nc2ccc(F)nc2)CCCN1c1nc(Nc2cc(C3CC3)[nH]n2)c2cccn2n1`, for which the RP-LC retention time turned out to be 946 s. Take `Cc1ccnc(N2CCC(C(=O)N3CCN(C(=O)c4ccco4)CC3)CC2)n1`: the RP-LC retention time was 616 s. Take `O=C(NCc1ccco1)Nc1cccc(-c2noc(C3CCC3)n2)c1`: the RP-LC retention time stood at 912 s. The figure for `Cn1ncc(Br)c1C(=O)N1CCCC1c1ccccc1F` (centres undefined) is 872 s. In the case of `COc1c(NC(C)=O)c2ccccc2c2ccccc12`, the RP-LC retention time stood at 830 s.

`Cc1ccc(CNC(=O)C2CCN(S(=O)(=O)c3cc(C(=O)N(C)C)cs3)CC2)o1` registered an RP-LC retention time of 708 s. With `O=C(c1cccnc1)N1CCCn2nc(-c3ccc(Cl)cc3)cc2C1` the figure was 739 s. The figure for `CCc1nc(-c2csc(S(=O)(=O)N3CCCC(C(=O)N(C)c4ccc(C)c(C)c4)C3)c2)no1` (centres undefined) is 1140 s; for `CCCNC(=O)C1CCN(c2ccc(SCC(=O)Nc3ccc(Cl)cc3F)nn2)CC1` it is 688 s.
